The values that follow come from patent publication US7829572B2 (Pfizer Inc, priority 2006, dated 2010).

This experiment has as its target T1, calcium receptor (CasR) (Homo sapiens, UniProt P41180).
T1 construct: expressed in transfected cells; host or cells: HEK 293
T1 sequence (P41180 20-1078): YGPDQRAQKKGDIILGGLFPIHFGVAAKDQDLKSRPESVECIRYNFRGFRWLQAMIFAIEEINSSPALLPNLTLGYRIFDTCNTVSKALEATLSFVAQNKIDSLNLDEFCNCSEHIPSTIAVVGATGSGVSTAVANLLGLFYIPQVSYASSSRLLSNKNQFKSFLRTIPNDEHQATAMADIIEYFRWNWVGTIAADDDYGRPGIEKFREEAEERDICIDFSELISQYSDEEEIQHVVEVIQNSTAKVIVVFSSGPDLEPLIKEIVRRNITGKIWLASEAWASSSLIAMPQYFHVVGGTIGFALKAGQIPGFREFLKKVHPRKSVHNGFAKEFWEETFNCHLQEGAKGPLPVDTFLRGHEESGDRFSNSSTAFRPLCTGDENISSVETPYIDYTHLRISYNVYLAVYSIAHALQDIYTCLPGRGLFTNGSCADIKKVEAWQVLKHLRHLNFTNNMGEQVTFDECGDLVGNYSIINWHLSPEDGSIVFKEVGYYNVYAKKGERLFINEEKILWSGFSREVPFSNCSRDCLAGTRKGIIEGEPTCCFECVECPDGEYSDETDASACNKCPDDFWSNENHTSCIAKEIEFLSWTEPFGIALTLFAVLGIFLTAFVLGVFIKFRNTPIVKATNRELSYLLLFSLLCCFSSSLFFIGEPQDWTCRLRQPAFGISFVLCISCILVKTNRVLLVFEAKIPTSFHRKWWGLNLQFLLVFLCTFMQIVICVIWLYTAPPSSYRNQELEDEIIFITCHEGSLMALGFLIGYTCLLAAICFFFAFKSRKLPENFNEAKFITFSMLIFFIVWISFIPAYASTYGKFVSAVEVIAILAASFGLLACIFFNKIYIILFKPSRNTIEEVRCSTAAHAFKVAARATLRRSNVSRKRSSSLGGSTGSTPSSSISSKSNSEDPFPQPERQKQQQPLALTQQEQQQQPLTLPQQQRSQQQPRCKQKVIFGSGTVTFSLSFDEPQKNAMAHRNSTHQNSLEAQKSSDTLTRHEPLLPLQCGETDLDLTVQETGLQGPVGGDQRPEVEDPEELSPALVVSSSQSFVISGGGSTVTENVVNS
The experiment in a line: FLIPR Assay for Evaluating the Potency and Selectivity of Test Compounds. It is filed as cell-based. The conditions noted are these: HEK 293 cells expressing CasR; 30 minutes pre-incubation; stimulation by 1.7 mM Ca2+; read 42 seconds after stimulation. An excerpt:
FLIPR Assay for Evaluating the Potency and Selectivity of Test Compounds
Human kidney cell (HEK 293) expressing the calcium receptor (CasR) are used to detect antagonists of the receptor using Fluorometric imaging plate reader (FLIPR, Molecular Devices, Sunnyvale Calif.). Receptor activation by extracellular calcium results in the release of calcium from intracellular stores into the cytosol. A fluorescent indicator (Fluo-4) is internalized by the cells from growth media and interacts with calcium released into the cytosol to provide a means of quantifying intracellular Ca^2+ levels and receptor agonism/antagonism. Fluorescence intensity is detected by the FLIPR CCD camera and traced as a function of time. Potential antagonists are identified by their ability to decrease this fluorescent response.
Prior to the addition of test compound cells are washed with a 10 mM HEPES buffer solution. The test compound, for example the compound of Example 1, is added at various doses (from 1 µM to 3 nM) and pre-incubated with cells for 30 minutes followed by stimulation of the CasR by the addition of 1.7 mM Ca^2+. IC50 values are based on the ability of the cells to inhibit the Ca^2+ induced increase in intracellular Ca^2+. Fluorescence signal is read 42 seconds after the stimulation of the CasR by the addition of 1.7 mM Ca^2+.
The following table provides FLIPR IC50 data for the specified Examples. The IC50s are reported as micromolar concentration with n being the number of times the particular compound was assayed.
For the molecule `O=c1c2c(-c3ccccc3)nccc2nc(-c2ccccc2O)n1CCc1ccccc1` [Example 24, 2-(2-Hydroxy-phenyl)-3-phenethyl-5-phenyl-3H-pyrido[4,3-d]pyrimidin-4-one], the IC50 (as a rule, the concentration needed to halve the response being measured) stood at 2600 nM.

Turning to `O=c1c2c(Cc3ccccc3)nccc2nc(-c2ccccc2O)n1CCc1ccccc1` [Example 25, 5-Benzyl-2-(2-hydroxy-phenyl)-3-phenethyl-3H-pyrido[4,3-d]pyrimidin-4-one], the IC50 is 3010 nM.

Regarding `Cc1nccc2nc(-c3ccccc3O)n(CCc3ccccc3)c(=O)c12` [Example 26, 2-(2-Hydroxy-phenyl)-5-methyl-3-phenethyl-3H-pyrido[4,3-d]pyrimidi-4-one], the IC50 amounted to 2990 nM.

With `CN(C)c1ccc(-c2nccc3nc(-c4ccccc4O)n(CCc4ccccc4)c(=O)c23)cn1` [Example 27, 5-(6-Dimethylamino-pyridin-3-yl)-2-(2-hydroxy-phenyl)-3-phenethyl-3H-pyrido[4,3-d]pyrimidin-4-one], the IC50 is 2260 nM.

As to `Cc1cc(-c2nccc3nc(-c4ccccc4O)n(CCc4ccccc4)c(=O)c23)cnc1N(C)C` [Example 28, 5-(6-Dimethylamino-5-methyl-pyridin-3-yl)-2-(2-hydroxy-phenyl)-3-phenethyl-3H-pyrido[4,3-d]pyrimidin-4-one], the IC50 came to 4830 nM.

In the case of `O=c1c2c(-c3ccc(N4CCCC4)nc3)nccc2nc(-c2ccccc2O)n1CCc1ccccc1` [Example 29, 5-(6-pyrrolidine-5-pyridin-3-yl)-2-(2-hydroxy-phenyl)-3-phenethyl-3H-pyrido[4,3-d]pyrimidin-4-one], the IC50 stood at 490 nM.

Consider `COc1nccc2nc(-c3ccccc3O)n(CCc3ccccc3)c(=O)c12` [Example 30, 2-(2-Hydroxy-phenyl)-5-methoxy-3-phenethyl-3H-pyrido[4,3-d]pyrimidin-4-one], for which the IC50 came to 1170 nM.

Turning to `CC1(COc2nccc3nc(-c4ccccc4O)n(CCc4ccccc4)c(=O)c23)CC1` [Example 31, 2-(2-Hydroxy-phenyl)-5-(1-methyl-cyclopropylmethoxy)-3-phenethyl-3H-pyrido[4,3-d]pyrimidin-4-one], the IC50 was 1930 nM.

Turning to `CCCOc1nccc2nc(-c3ccccc3O)n(CCc3ccccc3)c(=O)c12` [Example 32, 2-(2-Hydroxy-phenyl)-3-phenethyl-5-propoxy-3H-pyrido[4,3-d]pyrimidin-4-one], the IC50 worked out at 570 nM.

For the molecule `O=c1c2c(OC3CCC3)nccc2nc(-c2ccccc2O)n1CCc1ccccc1` [Example 33, 5-Cyclobutyloxy-2-(2-hydroxy-phenyl)-3-phenethyl-3H-pyrido[4,3-d]pyrimidin-4-one], the IC50 was found to be 520 nM.

Regarding `CC(C)COc1nccc2nc(-c3ccccc3O)n(CCc3ccccc3)c(=O)c12` [Example 34, 2-(2-Hydroxy-phenyl)-5-isobutoxy-3-phenethyl-3H-pyrido[4,3-d]pyrimidin-4-one], the IC50 is 1470 nM.

Consider `CC(C)Oc1nccc2nc(-c3ccccc3O)n(CCc3ccccc3)c(=O)c12` [Example 35, 2-(2-Hydroxy-phenyl)-5-isopropoxy-3-phenethyl-3H-pyrido[4,3-d]pyrimidin-4-one], for which the IC50 was determined as 380 nM.

In the case of `O=c1c2c(OCC(F)(F)F)nccc2nc(-c2ccccc2O)n1CCc1ccccc1` [Example 36, 2-(2-Hydroxy-phenyl)-3-phenethyl-5-(2,2,2-trifluoro-ethoxy)-3H-pyrido[4,3-d]pyrimidin-4-one], the IC50 came out at 600 nM.

`C[C@H](Cc1ccc(F)c(F)c1)n1c(-c2ncccc2O)nc2ccnc(C(F)(F)F)c2c1=O` [Example 37a, (R)-3-(1-(3,4-difluorophenyl)propan-2-yl)-2-(3-hydroxypyridin-2-yl) 5-(trifluoromethyl)pyrido[4,3-d]pyrimidin-4(3H)-one]: the IC50 turned out to be 8 nM.

`C[C@@H](Cc1ccc(F)c(F)c1)n1c(-c2ncccc2O)nc2ccnc(C(F)(F)F)c2c1=O` [Example 37b, (S)-3-(1-(3,4-difluorophenyl)propan-2-yl)-2-(3-hydroxypyridin-2-yl) 5-(trifluoromethyl)pyrido[4,3-d]pyrimidin-4(3H)-one]: the IC50 came to 2120 nM.

In the case of `COc1ccccc1CCn1c(-c2ncccc2O)nc2ccnc(C(F)(F)F)c2c1=O` [Example 39, 3-(2-methoxyphenethyl)-2-(3-hydroxypyridin-2-yl)-5-(trifluoromethyl)pyrido[4,3-d]pyrimidin-4(3H)-one], the IC50 amounted to 110 nM.

Turning to `O=c1c2c(C(F)(F)F)nccc2nc(-c2ncccc2O)n1CCc1cccc(F)c1F` [Example 40, 3-(2,3-difluorophenethyl)-2-(3-hydroxypyridin-2-yl)-5-(trifluoromethyl)pyrido[4,3-d]pyrimidin-4(3H)-one], the IC50 came to 460 nM.

Consider `COc1ccc(F)cc1CCn1c(-c2ncccc2O)nc2ccnc(C(F)(F)F)c2c1=O` [Example 41, 3-(5-fluoro-2-methoxyphenethyl)-2-(3-hydroxypyridin-2-yl)-5-(trifluoromethyl)pyrido[4,3-d]pyrimidin-4(3H)-one], for which the half-maximal inhibitory concentration (IC50) came to 250 nM.

On to `COc1cccc(F)c1CCn1c(-c2ncccc2O)nc2ccnc(C(F)(F)F)c2c1=O` [Example 42, 3-(2-fluoro-6-methoxyphenethyl)-2-(3-hydroxypyridin-2-yl)-5-(trifluoromethyl)pyrido[4,3-d]pyrimidin-4(3H)-one], for which the IC50 was 1120 nM.

`CCC(Cc1ccccc1F)n1c(-c2ncccc2O)nc2ccnc(C(F)(F)F)c2c1=O` (stereo not drawn) [Example 44, 3-(1-(2-fluorophenyl)butan-2-yl)-2-(3-hydroxypyridin-2-yl)-5-(trifluoromethyl)pyrido[4,3-d]pyrimidin-4(3H)-one]: the IC50 was determined as 2440 nM.

On to `COc1c(F)cccc1CCn1c(-c2ncccc2O)nc2ccnc(C(F)(F)F)c2c1=O` [Example 45, 3-(3-fluoro-2-methoxyphenethyl)-2-(3-hydroxypyridin-2-yl)-5-(trifluoromethyl)pyrido[4,3-d]pyrimidin-4(3H)-one], for which the IC50 was determined as 1870 nM.

As to `O=c1c2c(C(F)(F)F)nccc2nc(-c2ncccc2O)n1CCC1CCCC1` [Example 46, 3-(2-cyclopentylethyl)-2-(3-hydroxypyridin-2-yl)-5-(trifluoromethyl)pyrido[4,3-d]pyrimidin-4(3H)-one], the half-inhibitory concentration (IC50) came out at 290 nM.

As for `O=c1c2c(C(F)(F)F)nccc2nc(-c2ncccc2O)n1CCC1CCCCC1` [Example 47, 3-(2-cyclohexylethyl)-2-(3-hydroxypyridin-2-yl)-5-(trifluoromethyl)pyrido[4,3-d]pyrimidin-4(3H)-one], the IC50 is 60 nM.

As to `C[C@H](CC1CCCCC1)n1c(-c2ncccc2O)nc2ccnc(C(F)(F)F)c2c1=O` [Example 48a, (R)-3-(1-cyclohexylpropan-2-yl)-2-(3-hydroxypyridin-2-yl)-5-(trifluoromethyl)pyrido[4,3-d]pyrimidin-4(3H)-one], the IC50 turned out to be 160 nM.

`C[C@@H](CC1CCCCC1)n1c(-c2ncccc2O)nc2ccnc(C(F)(F)F)c2c1=O` [Example 48b, (S)-3-(1-cyclohexylpropan-2-yl)-2-(3-hydroxypyridin-2-yl)-5-(trifluoromethyl)pyrido[4,3-d]pyrimidin-4(3H)-one]: the IC50 was determined as 1690 nM.

For `C[C@H](Cc1ccccc1)n1c(-c2cccc(F)c2O)nc2ccnc(C(F)(F)F)c2c1=O` [Example 50, (R)-2-(3-fluoro-2-hydroxyphenyl)-3-(1-phenylpropan-2-yl)-5-(trifluoromethyl)pyrido[4,3-d]pyrimidin-4(3H)-one], the IC50 was 30 nM.

`C[C@H](Cc1ccccc1)n1c(-c2ncc[nH]2)nc2ccnc(C(F)(F)F)c2c1=O` [Example 51, (R)-2-(1H-imidazol-2-yl)-3-(1-phenylpropan-2-yl)-5-(trifluoromethyl)pyrido[4,3-d]pyrimidin-4(3H)-one]: the IC50 is 110 nM.
